System: 695427-040-R-J1-PDC complex spheroid viability
Experiment: Anticancer human tumor 695427-040-R-J1-PDC patient-derived colon adenocarcinoma cell line growth inhibition [RAS]
Details: for IC50: curve of first compound; for viability, T/C: stronger effect = lower value
Outline: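 Agents were tested in combination matrices in half-log decrements from a top concentration at or near clinical Cmax (10 microM if undetermined). Targets were multi-cell spheroids of tumour lines plus HUVEC and MSC stromal cells.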

[1] = second compound 0.0316 µM, first compound 0.00316 µM
[2] = second compound 0.0316 µM, first compound 0.01 µM
[3] = second compound 0.0316 µM, first compound 0.0316 µM
[4] = second compound 0.0316 µM, first compound 0.1 µM
[5] = second compound 0.0316 µM, first compound 0.316 µM
[6] = second compound 0.0316 µM, first compound 1 µM
[7] = second compound 0.1 µM, first compound 0.00316 µM
[8] = second compound 0.1 µM, first compound 0.01 µM
[9] = second compound 0.1 µM, first compound 0.0316 µM
[10] = second compound 0.1 µM, first compound 0.1 µM
[11] = second compound 0.1 µM, first compound 0.316 µM
[12] = second compound 0.1 µM, first compound 1 µM
[13] = second compound 0.316 µM, first compound 0.00316 µM
[14] = second compound 0.316 µM, first compound 0.01 µM
[15] = second compound 0.316 µM, first compound 0.0316 µM
[16] = second compound 0.316 µM, first compound 0.1 µM
[17] = second compound 0.316 µM, first compound 0.316 µM
[18] = second compound 0.316 µM, first compound 1 µM
[19] = second compound 1 µM, first compound 0.00316 µM
[20] = second compound 1 µM, first compound 0.01 µM
[21] = second compound 1 µM, first compound 0.0316 µM
[22] = second compound 1 µM, first compound 0.1 µM
[23] = second compound 1 µM, first compound 0.316 µM
[24] = second compound 1 µM, first compound 1 µM
[25] = second compound 0.0316 µM, first compound 0.000949 µM
[26] = second compound 0.0316 µM, first compound 0.003 µM
[27] = second compound 0.0316 µM, first compound 0.00949 µM
[28] = second compound 0.0316 µM, first compound 0.03 µM
[29] = second compound 0.0316 µM, first compound 0.0949 µM
[30] = second compound 0.0316 µM, first compound 0.3 µM
[31] = second compound 0.1 µM, first compound 0.000949 µM
[32] = second compound 0.1 µM, first compound 0.003 µM
[33] = second compound 0.1 µM, first compound 0.00949 µM
[34] = second compound 0.1 µM, first compound 0.03 µM
[35] = second compound 0.1 µM, first compound 0.0949 µM
[36] = second compound 0.1 µM, first compound 0.3 µM
[37] = second compound 0.316 µM, first compound 0.000949 µM
[38] = second compound 0.316 µM, first compound 0.003 µM
[39] = second compound 0.316 µM, first compound 0.00949 µM
[40] = second compound 0.316 µM, first compound 0.03 µM
[41] = second compound 0.316 µM, first compound 0.0949 µM
[42] = second compound 0.316 µM, first compound 0.3 µM
[43] = second compound 1 µM, first compound 0.000949 µM
[44] = second compound 1 µM, first compound 0.003 µM
[45] = second compound 1 µM, first compound 0.00949 µM
[46] = second compound 1 µM, first compound 0.03 µM
[47] = second compound 1 µM, first compound 0.0949 µM
[48] = second compound 1 µM, first compound 0.3 µM
[49] = second compound 3.16 µM, first compound 0.000949 µM
[50] = second compound 3.16 µM, first compound 0.003 µM
[51] = second compound 3.16 µM, first compound 0.00949 µM
[52] = second compound 3.16 µM, first compound 0.03 µM
[53] = second compound 3.16 µM, first compound 0.0949 µM
[54] = second compound 3.16 µM, first compound 0.3 µM
[55] = second compound 10 µM, first compound 0.000949 µM
[56] = second compound 10 µM, first compound 0.003 µM
[57] = second compound 10 µM, first compound 0.00949 µM
[58] = second compound 10 µM, first compound 0.03 µM
[59] = second compound 10 µM, first compound 0.0949 µM
[60] = second compound 10 µM, first compound 0.3 µM
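Further: viability read after seven days of drug exposure.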
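Wherever viability, T/C is given: 100% = DMSO vehicle control viability.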

C=CC(=O)N1CCN(c2nc(OCC3CCCN3C)nc3c(F)c(-c4nc(N)cc(C)c4C(F)(F)F)c(Cl)cc23)C(C)C1 (stereo not drawn) + C#Cc1c(F)ccc2cc(O)cc(-c3ncc4c(N5CC6CCC(C5)N6)nc(OCC56CCCN5CC(F)C6)nc4c3F)c12
IC50 (second compound 0.0316 µM): > 1 µM | IC50 (second compound 0.1 µM): > 1 µM | IC50 (second compound 0.316 µM): > 1 µM | IC50 (second compound 1 µM): > 1 µM | IC50 (second compound 3.16 µM): 0.498 µM | IC50 (second compound 10 µM): < 0.00316 µM | viability, T/C [1]: 88.4% | viability, T/C [2]: 104% | viability, T/C [3]: 96.7% | viability, T/C [4]: 95% | viability, T/C [5]: 98.5% | viability, T/C [6]: 92.9% | viability, T/C [7]: 98.4% | viability, T/C [8]: 89.5% | viability, T/C [9]: 98.5% | viability, T/C [10]: 85.5% | viability, T/C [11]: 94.7% | viability, T/C [12]: 83.3% | viability, T/C [13]: 91.6% | viability, T/C [14]: 88% | viability, T/C [15]: 95.5% | viability, T/C [16]: 83.1% | viability, T/C [17]: 89% | viability, T/C [18]: 67% | viability, T/C [19]: 76.2% | viability, T/C [20]: 78.4% | viability, T/C [21]: 67.2% | viability, T/C [22]: 67.3% | viability, T/C [23]: 60.4% | viability, T/C [24]: 58.4% | viability, T/C (second compound 3.16 µM, first compound 0.00316 µM): 56.3% | viability, T/C (second compound 3.16 µM, first compound 0.01 µM): 53% | viability, T/C (second compound 3.16 µM, first compound 0.0316 µM): 62.9% | viability, T/C (second compound 3.16 µM, first compound 0.1 µM): 58.7% | viability, T/C (second compound 3.16 µM, first compound 0.316 µM): 52.6% | viability, T/C (second compound 3.16 µM, first compound 1 µM): 41.5% | viability, T/C (second compound 10 µM, first compound 0.00316 µM): 39.6% | viability, T/C (second compound 10 µM, first compound 0.01 µM): 39.8% | viability, T/C (second compound 10 µM, first compound 0.0316 µM): 37.8% | viability, T/C (second compound 10 µM, first compound 0.1 µM): 45.8% | viability, T/C (second compound 10 µM, first compound 0.316 µM): 38.6% | viability, T/C (second compound 10 µM, first compound 1 µM): 42.8%

CC1(C)CCC(Nc2ncc(C(F)(F)F)c(-c3c[nH]c4c(P(C)(C)=O)c(C#N)ccc34)n2)CN1 (stereo not drawn) + C#Cc1c(F)ccc2cc(O)cc(-c3ncc4c(N5CC6CCC(C5)N6)nc(OCC56CCCN5CC(F)C6)nc4c3F)c12
IC50 (second compound 0.0316 µM): > 0.3 µM | IC50 (second compound 0.1 µM): > 0.3 µM | IC50 (second compound 0.316 µM): > 0.3 µM | IC50 (second compound 1 µM): > 0.3 µM | IC50 (second compound 3.16 µM): 0.00319 µM | IC50 (second compound 10 µM): < 0.000949 µM | viability, T/C [25]: 104% | viability, T/C [26]: 91.6% | viability, T/C [27]: 84.4% | viability, T/C [28]: 79% | viability, T/C [29]: 84.5% | viability, T/C [30]: 80.3% | viability, T/C [31]: 101% | viability, T/C [32]: 87.8% | viability, T/C [33]: 84.3% | viability, T/C [34]: 88.6% | viability, T/C [35]: 79% | viability, T/C [36]: 73.2% | viability, T/C [37]: 87.2% | viability, T/C [38]: 89.7% | viability, T/C [39]: 99.2% | viability, T/C [40]: 74% | viability, T/C [41]: 76.8% | viability, T/C [42]: 70.4% | viability, T/C [43]: 67.7% | viability, T/C [44]: 64.5% | viability, T/C [45]: 59.9% | viability, T/C [46]: 62.5% | viability, T/C [47]: 67.7% | viability, T/C [48]: 57.8% | viability, T/C [49]: 66.8% | viability, T/C [50]: 49.2% | viability, T/C [51]: 51.9% | viability, T/C [52]: 48.6% | viability, T/C [53]: 48% | viability, T/C [54]: 43.5% | viability, T/C [55]: 37.4% | viability, T/C [56]: 39.2% | viability, T/C [57]: 43.2% | viability, T/C [58]: 35.3% | viability, T/C [59]: 39.3% | viability, T/C [60]: 34.3%

CCc1c2c(nc3ccc(O)cc13)-c1cc3c(c(=O)n1C2)COC(=O)[C@]3(O)CC + C#Cc1c(F)ccc2cc(O)cc(-c3ncc4c(N5CC6CCC(C5)N6)nc(OCC56CCCN5CC(F)C6)nc4c3F)c12
IC50 (second compound 0.0316 µM): 0.119 µM | IC50 (second compound 0.1 µM): 0.122 µM | IC50 (second compound 0.316 µM): 0.0933 µM | IC50 (second compound 1 µM): 0.0597 µM | IC50 (second compound 3.16 µM): 0.0107 µM | IC50 (second compound 10 µM): < 0.000949 µM | viability, T/C [25]: 89.1% | viability, T/C [26]: 89.8% | viability, T/C [27]: 77.9% | viability, T/C [28]: 76% | viability, T/C [29]: 53.5% | viability, T/C [30]: 30.4% | viability, T/C [31]: 96.1% | viability, T/C [32]: 86.2% | viability, T/C [33]: 78.8% | viability, T/C [34]: 72.2% | viability, T/C [35]: 58.7% | viability, T/C [36]: 28.6% | viability, T/C [37]: 82% | viability, T/C [38]: 79.9% | viability, T/C [39]: 70.7% | viability, T/C [40]: 67.1% | viability, T/C [41]: 49.4% | viability, T/C [42]: 25.7% | viability, T/C [43]: 73.8% | viability, T/C [44]: 66.1% | viability, T/C [45]: 60.1% | viability, T/C [46]: 59.8% | viability, T/C [47]: 45.8% | viability, T/C [48]: 27.2% | viability, T/C [49]: 54.3% | viability, T/C [50]: 52% | viability, T/C [51]: 48.7% | viability, T/C [52]: 46% | viability, T/C [53]: 40.1% | viability, T/C [54]: 24.9% | viability, T/C [55]: 37.4% | viability, T/C [56]: 36.5% | viability, T/C [57]: 36.8% | viability, T/C [58]: 28.1% | viability, T/C [59]: 26.2% | viability, T/C [60]: 17.2%

C=CC(=O)Nc1cc(Nc2nccc(-c3cn(C)c4ccccc34)n2)c(OC)cc1N(C)CCN(C)C + C=CC(=O)N1CCN(c2nc(OCC3CCCN3C)nc3c(F)c(-c4nc(N)cc(C)c4C(F)(F)F)c(Cl)cc23)C(C)C1
IC50 (second compound 0.00316 µM): 0.406 µM | IC50 (second compound 0.01 µM): 0.5 µM | IC50 (second compound 0.0316 µM): 0.403 µM | IC50 (second compound 0.1 µM): 0.429 µM | IC50 (second compound 0.316 µM): 0.457 µM | IC50 (second compound 1 µM): 0.429 µM | viability, T/C (second compound 0.00316 µM, first compound 0.00316 µM): 96.5% | viability, T/C (second compound 0.00316 µM, first compound 0.01 µM): 94.1% | viability, T/C (second compound 0.00316 µM, first compound 0.0316 µM): 86.2% | viability, T/C (second compound 0.00316 µM, first compound 0.1 µM): 76.5% | viability, T/C (second compound 0.00316 µM, first compound 0.316 µM): 54.6% | viability, T/C (second compound 0.00316 µM, first compound 1 µM): 31.4% | viability, T/C (second compound 0.01 µM, first compound 0.00316 µM): 102% | viability, T/C (second compound 0.01 µM, first compound 0.01 µM): 94.5% | viability, T/C (second compound 0.01 µM, first compound 0.0316 µM): 83.7% | viability, T/C (second compound 0.01 µM, first compound 0.1 µM): 72.2% | viability, T/C (second compound 0.01 µM, first compound 0.316 µM): 57.5% | viability, T/C (second compound 0.01 µM, first compound 1 µM): 39.2% | viability, T/C [1]: 112% | viability, T/C [2]: 99.1% | viability, T/C [3]: 83.8% | viability, T/C [4]: 71% | viability, T/C [5]: 58.2% | viability, T/C [6]: 32.7% | viability, T/C [7]: 94.7% | viability, T/C [8]: 100% | viability, T/C [9]: 88% | viability, T/C [10]: 76.4% | viability, T/C [11]: 56.7% | viability, T/C [12]: 33% | viability, T/C [13]: 105% | viability, T/C [14]: 94.7% | viability, T/C [15]: 84.6% | viability, T/C [16]: 80.3% | viability, T/C [17]: 60.1% | viability, T/C [18]: 30.2% | viability, T/C [19]: 90.3% | viability, T/C [20]: 95.5% | viability, T/C [21]: 88.5% | viability, T/C [22]: 80.7% | viability, T/C [23]: 58.1% | viability, T/C [24]: 27.6%

— PubChem BioAssay AID2060888 (Molecular Pharmacology Branch, DTP, NCI, 2025)
